What was measured:
[1] = Unbound PPB (Rat in vivo test PPB); assay type: in vitro ADME
[2] = Pharmacokinetics (oral administration) in CD-1 mice; assay type: in vivo; details: for AUCu: AUCu = AUC0-inf × Unbound PPB (Mouse)
Procedure: The compound of formula (I) and the reference example were mixed with vehicle 10% NMP/60% PEG400/30% H2O, vortexed and sonicated to prepare a 0.6 mg/mL clear solution. Male CD-1 mice aged 7 to 10 weeks were selected, and the candidate compound solution was administered orally by gavage at a dose of 3.1 mg/kg. Whole blood was collected for a certain period of time to prepare plasma, and the drug concentration was analyzed by LC-MS/MS. Pharmacokinetic parameters were calculated with Phoenix WinNonlin software (Pharsight, USA).

[3] = Pharmacokinetics (intravenous) in SD rats; assay type: in vivo; details: for AUCu: 0.51 / 0.49 mg/kg, AUCu = AUC0-inf × Unbound PPB (Rat in vivo test PPB)
Procedure: The compound of formula (I) and the reference example were mixed with vehicle 0.10 mg/mL in 10% NMP/60% PEG400/30% H2O, vortexed and sonicated to prepare a 0.5 mg/mL clear solution. SD rats aged 7 to 10 weeks were selected and given the candidate compound solution intravenously. Whole blood was collected for a certain period of time to prepare plasma, and the drug concentration was analyzed by LC-MS/MS. Pharmacokinetic parameters were calculated with Phoenix WinNonlin software (Pharsight, USA).

[4] = Pharmacokinetics (oral) in SD rats; assay type: in vivo; details: for AUCu: 1.9 / 1.8 mg/kg, AUCu = AUC0-inf × Unbound PPB (Rat in vivo test PPB)
Procedure: The compound of formula (I) and the reference example were mixed with vehicle 10% NMP/60% PEG400/30% H2O, vortexed and sonicated to prepare a 2 mg/mL clear solution. SD rats aged 7 to 10 weeks were selected, and the candidate compound solution was administered orally.
Whole blood was collected for a certain period of time to prepare plasma, and the drug concentration was analyzed by LC-MS/MS method, and the pharmacokinetic parameters were calculated by Phoenix WinNonlin software (Pharsight, USA).

BTK^C481S = BTK^C481S (Homo sapiens (Human), UniProt Q06187, C481S); assay: BTK enzyme activity test (33P-ATP filtration-binding); assay type: biochemical
Chain of BTK^C481S (Q06187 whole entry C481S): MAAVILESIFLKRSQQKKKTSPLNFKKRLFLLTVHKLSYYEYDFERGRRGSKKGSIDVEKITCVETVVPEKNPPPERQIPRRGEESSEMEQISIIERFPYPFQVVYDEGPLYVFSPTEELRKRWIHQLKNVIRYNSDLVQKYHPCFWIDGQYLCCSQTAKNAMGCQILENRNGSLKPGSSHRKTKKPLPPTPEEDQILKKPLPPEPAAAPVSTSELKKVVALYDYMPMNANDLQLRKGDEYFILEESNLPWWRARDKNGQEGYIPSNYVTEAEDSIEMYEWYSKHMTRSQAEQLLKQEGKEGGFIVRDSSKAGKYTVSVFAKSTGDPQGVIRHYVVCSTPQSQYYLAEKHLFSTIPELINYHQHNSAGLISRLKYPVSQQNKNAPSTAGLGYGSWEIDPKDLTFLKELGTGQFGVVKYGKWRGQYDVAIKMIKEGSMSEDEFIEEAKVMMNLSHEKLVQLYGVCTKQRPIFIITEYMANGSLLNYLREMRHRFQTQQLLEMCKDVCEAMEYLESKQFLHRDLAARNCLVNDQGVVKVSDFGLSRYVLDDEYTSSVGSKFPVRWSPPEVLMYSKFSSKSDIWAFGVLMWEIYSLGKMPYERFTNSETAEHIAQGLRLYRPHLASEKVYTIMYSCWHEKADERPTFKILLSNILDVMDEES
Procedure: The specific experimental process of BTK enzyme activity test is as follows:
Buffer: 20 mM hydroxyethylpiperazine ethylsulfuric acid (Hepes) (pH 7.5), 10 mM magnesium chloride, 1 mM ethylene glycol bisaminoethyl ether tetraacetic acid (EGTA), 0.02% polyoxyethylene lauryl ether (Brij35), 0.02 mg/mL BSA, 0.1 mM sodium vanadate (Na3VO4), 2 mM dithiothreitol (DTT), 1% DMSO, 200 μM adenosine triphosphate (ATP).
1. Configuring the substrate in the newly prepared reaction buffer
2. Adding the required cofactors to the above substrate solution
3. Adding the kinase BTK^C481S to the above substrate solution and mixing well
4. Adding the compound dissolved in DMSO to the kinase reaction mixture through
Echo550 (Acoustic technology; nanoliter range), and incubating at room temperature for 20 minutes
5. Adding ^33P-ATP (with a specific activity of 10 μCi/μL) into the reaction mixture to initiate the reaction
6. Incubating at room temperature for 2 hours
7. Detection of radioactivity by filtration-binding method
8. Kinase activity data represent the percentage of remaining kinase activity in the test sample compared to the vehicle (dimethyl sulfoxide) reaction.

Unbound PPB (Mouse) = assay type: in vitro ADME
[5] = Pharmacokinetics (intravenous) in CD-1 mice; assay type: in vivo; details: for AUCu: AUCu = AUC0-inf × Unbound PPB (Mouse)
Procedure: The compound of formula (I) and the reference example were mixed with vehicle 0.10 mg/mL in 10% NMP/60% PEG400/30% H2O, vortexed and sonicated to prepare a 0.1 mg/mL clear solution. Select CD-1 male mice aged 7 to 10 weeks and administer the candidate compound solution intravenously at a dose of 0.21 mg/kg.
The whole blood was collected for a certain period of time to prepare plasma, and the drug concentration was analyzed by LC-MS/MS method. Pharmacokinetic parameters were calculated by Phoenix WinNonlin software (Pharsight, USA).

[6] = Hygroscopicity research by dynamic vapor adsorption (DVS); assay type: physicochemical; details: 25° C. and 80% RH
Procedure: The vapor adsorption analysis (DVS) method of this application.
Instrument model: SMS DVS Advantage dynamic vapor adsorption instrument
Test conditions: Take a sample (10-15 mg) and place it in a DVS sample tray for testing.
The detailed DVS parameters are as follows:
Balance: dm/dt=0.01%/min (shortest: 10 min, longest: 180 min)
RH (%) test range: 0%-90%-0%
SMS DVS Advantage dynamic vapor adsorption instrument
Taking 10-15 mg of compound crystal form C of formula (I) and placing it in a DVS sample tray for testing.

[7] = Competitive experiment of crystal form B and crystal form C (suspension in methyl tert-butyl ether); assay type: physicochemical
Procedure: Three groups of 30 mg crystal form B and 30 mg crystal form C compounds were respectively added to different 2.0 mL glass vials, and 0.6 mL methyl tert-butyl ether was added to obtain a suspension, and the suspension samples were placed in the magnetic heating stirrer was stirred at 20° C., 40° C. and 60° C. for 16 hours, the suspension was centrifuged to obtain a white solid, and the crystal form C of the compound of formula (I) was obtained by vacuum drying to constant weight.

[8] = tested on: human B-cell lymphoma OCI-LY10 cells; assay: OCI-LY10 SCID mouse subcutaneous xenograft tumor model; assay type: in vivo, SCID mice; details: for T/C / TGI: Day 20; for Tumor volume (Day 0) / Tumor volume (Day 20): Mean ± SEM
Procedure: OCI-LY10SCID mouse xenograft tumor model:
Experimental Method: Subcutaneous Xenograft Tumor Model in Mice with Human B-Cell Lymphoma
Tumor cells in the logarithmic growth phase were collected and resuspended in IMDM basal medium. Matrigel was added to adjust the concentration of cells to 4×10^7/Ml. Under sterile conditions, SCID mice were inoculate with cell suspension subcutaneously on the right back at a concentration of 4×10^6/0.1 mL/mouse. When the animal tumor reached about 131.55-227.87 mm^3, the tumor-bearing mice were divided into 5 groups according to the size of the tumor volume, with 8 […] in each group. On the day of the experiment, the animals were given corresponding drugs according to the groups.
During the experiment, the body weight and tumor size of the animals were measured 3 times a week, and the clinical symptoms of the animals were observed and recorded every day, and each administration was referred to the last weighed animal body weight.
The length (a) and width (b) of the tumor were measured with a digital vernier caliper, and tumor volume (Tumor volume, TV) was calculated according to the formula below: […]

[9] = Solid stability test (XRPD) under high temperature, high humidity and strong light; assay type: physicochemical
Procedure: According to the “Guiding Principles for Stability Testing of Raw Materials and Preparations” (Chinese Pharmacopoeia 2015 Edition Four General Rules 9001), the crystal form C of the compound of formula (I) was investigated for its stability under high temperature (60° C., open), high humidity (a. room temperature/relative humidity 92.5%, open; b. 40° C./75% relative humidity, open; c. 60° C./75% relative humidity, open) and the stability under strong light (5000 1×, airtight).
The crystal form C (15 mg) of the compound of formula (I) is weighed and placed on the bottom of the glass sample bottle to be spread into a thin layer. Samples placed under high-temperature and high-humidity conditions are sealed with aluminum foil, and small holes are formed on the aluminum foil to ensure that the samples can fully contact with the ambient air; and the sample placed under the strong illumination condition is sealed by a threaded bottle cap. Samples placed under different conditions were sampled and tested (XRPD) on the 5th day, 10th day, and 1 month. The test results were compared with the initial test results on day 0.

[10] = mouse, plasma, 3.1 mg/kg, CD-1 male mice
[11] = rat, plasma, SD rats, 0.51 mg/kg (Reference Example) / 0.49 mg/kg (Compound of Formula (I))
[12] = rat, plasma, SD rats, 1.9 mg/kg (Reference Example) / 1.8 mg/kg (Compound of Formula (I))
[13] = mouse, plasma, 0.21 mg/kg, CD-1 male mice

Compound: CO[C@@H]1C[C@@H](CO)OC[C@@H]1Nc1ncnc2[nH]cc(C(=O)c3ccc(Oc4ccccc4)cc3Cl)c12 [Compound of formula (I)]
- Unbound PPB ([1]; Table 12): 0.2%
- Unbound PPB ([1]; Table 13): 0.2%
- Free drug concentration in mouse plasma, conclusion [2]: higher than that of the reference compound
- AUCu ([2]; 3.1 mg/kg, CD-1 male mice): 0.133 µM·h
- Free drug concentration in rat plasma, conclusion [3]: higher than that of the reference compound
- AUCu ([3]; SD rats): 0.0034 µM·h
- Free drug concentration in rat plasma, conclusion [4]: higher than that of the reference compound
- AUCu ([4]; SD rats): 0.0078 µM·h
- Inhibitory effect on BTK C481S mutation, conclusion (BTK^C481S): strong inhibitory effect
- Unbound PPB (Unbound PPB (Mouse); Table 10): 0.4%
- Unbound PPB (Unbound PPB (Mouse); Table 11): 0.4%
- Free drug concentration in mouse plasma, conclusion [5]: higher than that of the reference compound
- AUCu ([5]; 0.21 mg/kg, CD-1 male mice): 0.0124 µM·h

Compound: CO[C@@H]1C[C@@H](CO)OC[C@@H]1Nc1ncnc2[nH]cc(C(=O)c3ccc(Oc4ccccc4)cc3Cl)c12 [Form C]
- Hygroscopicity classification [6]: slightly hygroscopic (2% > ΔW % ≥ 0.2%)
- ΔW (hygroscopic weight gain) ([6]; DVS): 0.262%
- Relative stability compared with Form B, conclusion [7]: Conclusion: Compared with Form B, Form C is more stable.
- T/C ([8]; 15 mg/kg PO QD × 21): 65.50%
- TGI ([8]; 15 mg/kg PO QD × 21): 49.61%
- Tumor volume (Day 0) ([8]; 15 mg/kg PO QD × 21): 182.02 ± 9.76 mm^3
- Tumor volume (Day 20) ([8]; 15 mg/kg PO QD × 21): 471.07 ± 16.55 mm^3
- T/C ([8]; 30 mg/kg PO QD × 21): 45.05%
- TGI ([8]; 30 mg/kg PO QD × 21): 71.75%
- Tumor volume (Day 0) ([8]; 30 mg/kg PO QD × 21): 180.91 ± 9.67 mm^3
- Tumor volume (Day 20) ([8]; 30 mg/kg PO QD × 21): 342.95 ± 20.06 mm^3
- T/C ([8]; 45 mg/kg PO QD × 21): 29.25%
- TGI ([8]; 45 mg/kg PO QD × 21): 92.82%
- Tumor volume (Day 0) ([8]; 45 mg/kg PO QD × 21): 180.19 ± 10.07 mm^3
- Tumor volume (Day 20) ([8]; 45 mg/kg PO QD × 21): 221.38 ± 37.11 mm^3
- Tumor inhibitory effect versus reference compound, conclusion ([8]; at the same dose): obviously better than that of reference compound
- Tumor growth inhibition, conclusion ([8]; inhibitory effect positively correlated with dose): significantly inhibit tumor growth
- Crystal Form (XRPD) ([9]; 0 day, initial): Form C
- Crystal Form (XRPD) ([9]; High humidity (40° C./75% relative humidity, open), 1 month): Form C
- Crystal Form (XRPD) ([9]; High humidity (60° C./75% relative humidity, open), 1 month): Form C
- Crystal Form (XRPD) ([9]; High humidity (room temperature/relative humidity 92.5%, open), 5th day): Form C
- Crystal Form (XRPD) ([9]; High humidity (room temperature/relative humidity 92.5%, open), 10th day): Form C
- Crystal Form (XRPD) ([9]; High temperature (60° C., open), 5th day): Form C
- Crystal Form (XRPD) ([9]; High temperature (60° C., open), 10th day): Form C
- Crystal Form (XRPD) ([9]; Strong light (5000 lx, airtight), 10th day): Form C
- Solid stability, conclusion ([9]; high temperature, high humidity and strong light conditions): Conclusion: The crystal form C of the compound of formula (I) has good stability under high temperature, high humidity and strong light conditions.

Compound: O=C(c1ccc(Oc2ccccc2)cc1Cl)c1c[nH]c2ncnc(N[C@@H]3CC[C@@H](CO)OC3)c12 [Reference Example]
- Unbound PPB ([1]; Table 12): 0.1%
- Unbound PPB ([1]; Table 13): 0.1%
- AUCu ([2]; 3.1 mg/kg, CD-1 male mice): 0.0882 µM·h
- AUC(0-inf) [2, 10]: 44.1 µM·h
- Cmax [2, 10]: 3840 nM
- half-life [2, 10]: 3.75 h
- AUCu ([3]; SD rats): 0.0019 µM·h
- AUC(0-inf) [3, 11]: 1.92 µM·h
- C0 [3, 11]: 800 nM
- Vd [3, 11]: 1.57 L/kg
- clearance [3, 11]: 9.08 mL/min/kg
- half-life [3, 11]: 2.02 h
- AUCu ([4]; SD rats): 0.005 µM·h
- AUC(0-inf) [4, 12]: 5.03 µM·h
- Cmax [4, 12]: 607 nM
- half-life [4, 12]: 2.41 h
- T/C ([8]; 45 mg/kg PO QD × 21): 42.45%
- TGI ([8]; 45 mg/kg PO QD × 21): 74.47%
- Tumor volume (Day 0) ([8]; 45 mg/kg PO QD × 21): 183.86 ± 9.48 mm^3
- Tumor volume (Day 20) ([8]; 45 mg/kg PO QD × 21): 330.27 ± 19.35 mm^3
- Unbound PPB (Unbound PPB (Mouse); Table 10): 0.2%
- Unbound PPB (Unbound PPB (Mouse); Table 11): 0.2%
- AUCu ([5]; 0.21 mg/kg, CD-1 male mice): 0.007 µM·h
- AUC(0-inf) [5, 13]: 3.49 µM·h
- C0 [5, 13]: 1040 nM
- Vd [5, 13]: 0.7 L/kg
- clearance [5, 13]: 2.01 mL/min/kg
- half-life [5, 13]: 4.34 h

Source: patent US20240239802A1, “CRYSTAL FORM OF PYRROLOPYRIMIDINE COMPOUND AND PREPARATION METHOD FOR CRYSTAL FORM” (ZHEJIANG LONGCHARM BIO-TECH PHARMA. CO., LTD., priority 2021, published 2024)
